Data from patent US6485970B1, “Immunointeractive antibody” (priority 1997, dated 2002).
Ends that are not written are not given here.

Experiments:
sensory nerves [1] = experiment: Rat footpad blister model, vascular response to substance P perfusion; format: in vivo; details: SP 1 μM alone
Procedure: (§1) A vacuum-induced blister model in the footpad of anaesthetised rats is used to induce an inflammatory response in naive skin by (a) electrical stimulation (ES) of the distal end of the cut sciatic nerve at 20 v, 5 Hz, […] for 1 min or (b) superfusion of the sensory neuropeptide; substance P (SP) over the blister base.
Male outbred Sprague-Dawley rats with an average weight of 250-300 gm were used (n=6-8 per group). Anaesthesia was induced with pentobarbitone sodium (Nembutal, 60 mg/kg, i.p.). To ensure that rats remained under a constant stage of surgical anaesthesia additional doses (15 mg/kg) were administered during the experiment. The absence of an eyelash reflex was used as an indication of the level of unconciousness. […]
(§2) For measurement of local blood flow, a probe attached to a laser Doppler flowmeter (Periflux, PF2B, Perimed, Sweden) was inserted vertically through a third port in the perspex chamber above the blister base. Relative blood flow was recorded over time on a chart recorder and measured as the surface area under the response curve in cm^2 using a digital planimeter.
(§3) Vasodilator responses were measured as the area under the response curve (cm^2) using a digital planimeter (Tamaya, Japan). For vascular responses to ES the area was measured for 20 min following stimulation. […] Results are expressed as mean±SEM. […]

sensory nerves [2] = experiment: Rat footpad blister model, vascular response to antidromic electrical stimulation of the sciatic nerve; format: in vivo
Procedure: as §1
Male outbred Sprague-Dawley rats with an average weight of 250-300 gm were used (n=6-8 per group). Anaesthesia was induced with pentobarbitone sodium (Nembutal, 60 mg/kg, i.p.). To ensure that rats remained under a constant stage of surgical anaesthesia additional doses (15 mg/kg) were administered during the experiment. The absence of an eyelash reflex was used as an indication of the level of unconciousness. At the end of the experiment, animals were killed by barbituate overdose (100 mg/kg).
A blister was induced on the hind footpad on the anaesthetised rat by applying a vacuum pressure of −40 kPa to the glabrous skin for approximately 30 mins, using a metal suction cap heated to 40° C. by an attached heating element.
When a blister was established, the surface epithelium was removed and a perspex chamber with inlet and outlet ports was fixed over the blister base. Perfusion of the drugs over the blister was maintained at 4 ml/h by a peristaltic pump (Microperpex S, LKB, Sweden). Both perfusion and body temperature were kept at 37° C.
An initial 15 min equilibration with Ringer's solution (NaCl 9.0 g, KCl 0.42 g, CaCl2 0.48 g, NaHCO3 0.2 g in 1000 ml dH2O) was allowed before each experiment, during which time a stable baseline was established.
The right sciatic nerve in the mid-thigh region of the anaesthetised rat was dissected free and cut as proximally as possible. The distal portion of the cut nerve was placed over bipolar platinum electrodes and immersed in liquid paraffin warmed to 37° C. and contained in a bath that was formed by raising the skin flaps of the wound. The distal end of the sciatic nerve was stimulated with a Grass S48 stimulator at 20 V, 5 Hz, 0.5 ms square waves for 1 min. These parameters were previously shown to stimulate sensory nerves with subsequent release of sensory peptides.
as §2, §3

BA-TABM = experiment: Competitive inhibition ELISA, BA-TABM against plate bound BA-HSA; format: binding, human; details: competitor pre-incubated with BA-TABM
Procedure: FIG. 13 is a graphical representation of competitive inhibition ELISA between BA-TABM and various haptens. Purified BA-TABM was diluted and pre-mixed with various haptens. […] The amount of TABM binding as determined using the mouse monoclonal anti-human TABM antibody (MG3C9-1A12). [drawing 12]
FIG. 14 is a graphical representation showing inhibition ELISA between BA-TABM and various chemicals. Purified BA-TABM was diluted and pre-mixed with various chemicals. […] The amount of TABM binding was determined using the mouse monoclonal anti-human TABM antibody (MG3C9-1A12). [drawing 13]
The competing antigens or haptens were serially diluted (½) in the diluted serum to give a range equivalent to 5000-312.5 ng per well. […] The plate was then incubated for 60 minutes at 37° C. After washing, mouse anti-human TABM was diluted ( 1/2000), added to the plate and incubated for 90 minutes at 37° C., followed by sheep anti-mouse immunoglobulins ( 1/1000). The assay was then completed as previously described. The same ELISA conditions were used with non-bound organic molecules, except that pre-incubation of competing molecules with BA-TABM and serum was for 60 minutes.

[3] = human, in vivo

Molecule: Substance P (RPKPQQFFGLM; ends and bridges not checked; UniProt P20366 58-68, looked up) [SP, sensory neuropeptide]
- vasodilatation response to SP, area under curve 30 min (sensory nerves [1]): 44.1±3.9 cm^2

Molecule: TGF-β
- area of the vascular response to ES in presence of TGF-β (sensory nerves [2]; capsaicin-pretreated rats, TGF-β 10 pg/ml): 12.1±1.0 cm^2
- effect on baseline blood flow (sensory nerves [2]; control rats, TGF-β 10 pg/ml): did not alter the baseline
- area under the vascular response curve to ES, 20 min (sensory nerves [2]; control rats, TGF-β 10 pg/ml perfused 10 min prior to ES and post stimulation): 31.44±3.2 cm^2

Molecule: COc1cc(CNC(=O)CCCC/C=C/C(C)C)ccc1O [capsaicin, reference compound]
- area of the vascular response to ES (sensory nerves [2]; capsaicin-pretreated rats (50 mg/kg s.c., neonatal), no TGF-β): 11.7±1.1 cm^2

Molecule: TMA-BSA: trimellitic acid (TMA) protein conjugate
- inhibition of BA-TABM binding to plate bound BA-HSA (BA-TABM): Weaker inhibition

Molecule: Cc1ccccc1 [toluene]
- Digit Symbol, Post Challenge Mean [3]: 40.00 No. of correct items
- Focal Length, Post Challenge Mean [3]: 29.53 cms
- Letter Cancellation [3]: 63% correct
- Letter Cancellation Time, Post Challenge Mean [3]: 4.79 min
- Letter Cancellation time [3]: (5′40″)
- Letter Cancellation, Post Challenge Mean [3]: 77.56 % Correct
- Prose Memory (delayed), Post Challenge Mean [3]: 8.77 No. Items recalled
- Prose Memory (immediate), Post Challenge Mean [3]: 7.36 No. Items recalled
- Prose: Delayed Recall [3]: 6.5 items
- Prose: Immediate Recall [3]: 6 items
- STROOP (colour), Post Challenge Mean [3]: 74.43 No. seconds/100 words
- STROOP (colour-word), Post Challenge Mean [3]: 119.73 No. seconds/100 words
- STROOP (word), Post Challenge Mean [3]: 58.93 No. seconds/100 words
- Stroop: Colour word [3]: 161 s
- Stroop: Colours [3]: 90 s
- Stroop: Words [3]: 75 s
- Symbol Digit [3]: 32 items
